Reference: the CheMixHub drug solubility set

Assay: xn = mol fraction of the nth substance listed, in the solute-free solvent

Nc1ncc(Br)nc1Br + CC(C)O + O
solubility (g/100 g solution)
Conditions	278.15 K	283.15 K	288.15 K	293.15 K	298.15 K	303.15 K	308.15 K	313.15 K	318.15 K	323.15 K
x2 = 0.03225	0.0151	0.0182	0.0212	0.0248	0.0285	0.032	0.0361	0.0405	0.0448	0.0495
x2 = 0.06974	0.0399	0.0475	0.0548	0.0636	0.0724	0.0809	0.0905	0.101	0.111	0.122
x2 = 0.1139	0.0745	0.0882	0.101	0.117	0.133	0.148	0.165	0.183	0.202	0.221
x2 = 0.1666	0.109	0.129	0.148	0.171	0.194	0.218	0.242	0.269	0.297	0.327
x2 = 0.2307	0.133	0.157	0.181	0.21	0.24	0.273	0.304	0.34	0.377	0.42
x2 = 0.3103	0.153	0.178	0.21	0.244	0.281	0.318	0.358	0.403	0.449	0.5
x2 = 0.4117	0.166	0.198	0.233	0.273	0.312	0.358	0.403	0.453	0.505	0.567
x2 = 0.5454	0.181	0.216	0.255	0.298	0.344	0.398	0.449	0.51	0.573	0.64
x2 = 0.7297	0.197	0.236	0.277	0.324	0.376	0.432	0.496	0.562	0.634	0.721

O=C1C=CC(=O)N1c1ccccc1Br + CC(C)O + O
solubility (g/100 g solution)
Conditions	278.15 K	283.15 K	288.15 K	293.15 K	298.15 K	303.15 K	308.15 K	313.15 K	318.15 K	323.15 K
x2 = 0.03225	0.488	0.623	0.779	0.978	1.23	1.51	1.84	2.23	2.7	3.25
x2 = 0.06974	0.861	1.08	1.35	1.69	2.09	2.55	3.1	3.77	4.48	5.34
x2 = 0.1139	1.4	1.76	2.18	2.7	3.31	3.97	4.86	5.84	6.97	8.22
x2 = 0.1666	2.08	2.57	3.18	3.87	4.71	5.69	6.76	8.01	9.42	11
x2 = 0.2307	2.9	3.57	4.27	5.21	6.18	7.35	8.51	10.1	11.6	13.5
x2 = 0.3103	3.46	4.18	5.06	6.06	7.2	8.48	9.92	11.5	13.2	15.1
x2 = 0.4117	3.79	4.6	5.54	6.58	7.75	9.12	10.5	12.3	14.1	16.1
x2 = 0.5454	3.85	4.69	5.65	6.75	7.99	9.39	10.8	12.7	14.6	16.7
x2 = 0.7297	3.73	4.58	5.43	6.58	7.83	9.28	10.8	12.5	14.4	16.6

O=c1cc(CBr)c2ccccc2[nH]1 + CC(C)O + O
solubility (g/100 g solution)
Conditions	278.15 K	283.15 K	288.15 K	293.15 K	298.15 K	303.15 K	308.15 K	313.15 K	318.15 K
x2 = 0.03225	0.0121	0.0159	0.0207	0.0271	0.0355	0.0446	0.057	0.0718	0.0897
x2 = 0.06974	0.0203	0.0259	0.0329	0.0413	0.0516	0.0641	0.079	0.0958	0.119
x2 = 0.1139	0.03	0.0369	0.0456	0.0556	0.0685	0.0827	0.099	0.118	0.14
x2 = 0.1666	0.0397	0.0483	0.0576	0.0694	0.082	0.0986	0.115	0.136	0.158
x2 = 0.2307	0.0498	0.0596	0.0697	0.0834	0.0971	0.113	0.131	0.151	0.173
x2 = 0.3103	0.0585	0.0689	0.0799	0.0928	0.106	0.123	0.141	0.161	0.18
x2 = 0.4117	0.0623	0.0721	0.0833	0.0972	0.112	0.127	0.144	0.163	0.184
x2 = 0.5454	0.065	0.0751	0.0871	0.1	0.114	0.13	0.147	0.164	0.185
x2 = 0.7297	0.0639	0.0739	0.0847	0.0962	0.11	0.124	0.14	0.158	0.176

c1ccc2c(c1)CCc1ccccc1N2 + CC(C)O + O
solubility (g/100 g solution)
Conditions	283.15 K	288.15 K	293.15 K	298.15 K	303.15 K	308.15 K	313.15 K	318.15 K	323.15 K	328.15 K
x2 = 0.03176	0.0176	0.0251	0.0346	0.0488	0.0604	0.0841	0.111	0.148	0.194	0.252
x2 = 0.0697	0.0729	0.101	0.136	0.186	0.24	0.32	0.411	0.527	0.674	0.851
x2 = 0.1134	0.12	0.164	0.22	0.296	0.38	0.499	0.636	0.808	1.02	1.28
x2 = 0.1667	0.119	0.156	0.212	0.286	0.384	0.504	0.625	0.779	0.979	1.22
x2 = 0.2299	0.126	0.162	0.214	0.281	0.369	0.484	0.601	0.762	0.947	1.18
x2 = 0.3101	0.114	0.153	0.205	0.27	0.348	0.452	0.575	0.726	0.915	1.14
x2 = 0.4103	0.132	0.176	0.237	0.308	0.396	0.511	0.648	0.814	1.02	1.27
x2 = 0.5463	0.168	0.221	0.295	0.38	0.487	0.622	0.771	0.958	1.18	1.47
x2 = 0.7321	0.172	0.219	0.296	0.374	0.48	0.613	0.778	0.975	1.22	1.51

Nc1ncc(Br)nc1Br + CC(O)CO + O
solubility (g/100 g solution)
Conditions	278.15 K	283.15 K	288.15 K	293.15 K	298.15 K	303.15 K	308.15 K	313.15 K	318.15 K	323.15 K
x2 = 0.02564	0.0095	0.0115	0.0136	0.016	0.0185	0.0208	0.0236	0.0266	0.0296	0.0328
x2 = 0.0559	0.0197	0.0236	0.0277	0.0324	0.0372	0.0418	0.0471	0.0527	0.0583	0.0644
x2 = 0.09214	0.0333	0.0398	0.0466	0.0542	0.0622	0.0696	0.0781	0.0872	0.0963	0.106
x2 = 0.1364	0.0486	0.0576	0.0678	0.0785	0.0902	0.101	0.113	0.126	0.139	0.154
x2 = 0.1915	0.0614	0.0724	0.0858	0.0998	0.115	0.13	0.147	0.163	0.18	0.2
x2 = 0.2621	0.0735	0.0873	0.103	0.12	0.138	0.158	0.176	0.197	0.218	0.244
x2 = 0.3559	0.0818	0.0972	0.116	0.134	0.156	0.178	0.201	0.225	0.251	0.281
x2 = 0.4865	0.0875	0.105	0.125	0.146	0.17	0.196	0.219	0.246	0.276	0.307
x2 = 0.6806	0.0874	0.104	0.124	0.147	0.171	0.196	0.224	0.252	0.281	0.316

O=c1cc(CBr)c2ccccc2[nH]1 + CCCO + O
solubility (g/100 g solution)
Conditions	278.15 K	283.15 K	288.15 K	293.15 K	298.15 K	303.15 K	308.15 K	313.15 K	318.15 K
x2 = 0.03225	0.0181	0.0232	0.0292	0.0365	0.0451	0.0563	0.0686	0.0826	0.0993
x2 = 0.06974	0.0316	0.038	0.0464	0.0561	0.0674	0.0807	0.0957	0.112	0.131
x2 = 0.1139	0.0465	0.0552	0.0643	0.0756	0.0895	0.104	0.119	0.138	0.157
x2 = 0.1666	0.0629	0.0722	0.084	0.096	0.11	0.125	0.142	0.159	0.18
x2 = 0.2307	0.0788	0.0907	0.102	0.115	0.131	0.146	0.164	0.181	0.202
x2 = 0.3103	0.0908	0.103	0.115	0.13	0.144	0.161	0.18	0.198	0.218
x2 = 0.4117	0.0987	0.11	0.124	0.14	0.155	0.172	0.189	0.207	0.229
x2 = 0.5454	0.103	0.114	0.128	0.141	0.156	0.173	0.189	0.209	0.228
x2 = 0.7297	0.102	0.112	0.124	0.138	0.151	0.166	0.183	0.2	0.217
